Bridge positions count the residues as written; N and C are the ends.
Legend:
[1] = tested on: acid phosphatase (AP) activity in mussel mantle edge; experiment: Acid phosphatase (TRAP) activity in mantle after ex-vivo incubation; parameters: species or system Mytilus galloprovincialis; settings: after exposure to CALCIIa 10 μM or ouabain 2 mM; TRAP assay, pNPP, pH 5.3; p < 0.05
Procedure: (A) Esterase activity and (B) Acid phosphatase activity. Enzyme activity was quantified in protein extracts from the mantle of control or challenged samples that were incubated with the mussel CALCIIa peptide. Values represent the mean ± SEM (CA, n = 6 and TRAP, n = 10) performed in duplicate. Prism GraphPad v5 software was used to assess the significance of the differences between the groups using One-way Anova and Tukey’s multiple comparison test. […] C - control; P - peptide (10 μM); O - ouabain (2 mM), OP - ouabain (2 mM) and peptide (10 μM); PreOP - pre stimulation for 1 hour with the peptide and 4 hours incubation with OP.
The posterior mantle edge region of the Mediterranean mussel was collected and washed in culture medium. The composition of the culture medium was as described in[91] […] The culture medium was supplemented with heat inactivated 2% FBS (SIGMA-ALDRICH), 0.1% penicillin: streptomycin antibiotic mix (10.000 U:10 mg/ml, SIGMA-ALDRICH) and 250 μg/ml sterile filtered 1:100 amphotericin B solution (Sigma-Aldrich). The posterior mantle edge from mussels was collected into culture medium and cut into fragments of approximately 1–2 mm in length. […]
Acid phosphatase activity of the mantle protein extracts (n = 6/ group) was determined using 96 well-plates (GREINER, Germany) and a tartrate resistant acid phosphatase (TRAP) assay as described in[93].

mussel CALCRIIc = experiment: Calcium mobilization assay (apoaequorin bioluminescence), dose-response, HEK 293 cells expressing mussel CALCRIIc; assay type: cell-based, Mytilus coruscus; settings: HEK 293/apoaequorin, 1 μM to 0.01 nM
From the text: The complete sequence of the Mediterranean mussel CALCRIa was amplified using specific primers (Table 1) from cDNA of a tissue mixture (mantle, adductor muscle, gills, gonads) using a proofreading DNA polymerase (iProof BIORAD, Portugal) and cloned into the pGEMT-easy vector (PROMEGA, Spain). The Mediterranean mussel CALCRIIa transcript that was found in the mantle transcriptome was incomplete and lacked the N-terminus (by comparisons with the hard-shelled mussel homologue) and so the remaining sequence (from 1–393 bp) was deduced from the hard-shelled mussel homologue receptor and the receptor was synthesised and supplied by GENESCRIPT (USA). The complete transcripts for mussel CALCRIc, CALCRIIb and CALCRIIc were only found in the hard-shelled mussel mantle transcriptome and homologues were only found in the Mediterranean mussel genome as they were absent from the species mantle transcriptome and so they were also synthesised and supplied by GENESCRIPT (USA) using the hard-shelled mussel receptor sequences as template. […]
Mammalian cell cultures and transfections followed the methodology described by[89],[90]. […] Cell recovery was monitored daily and the medium was changed every two days until no cell death was observed. […]
HEK293 cells stably expressing five mussel receptors (CALCRIa, CALCRIc, CALCRIIa, CALCRIIb and CALCRIIc) were stimulated with the two mussel peptides and the vertebrate (human and salmon) calcitonins. Receptor activation was assessed in vitro by measuring two intracellular signalling pathways: a) production of cAMP and b) mobilization of calcium (Ca^2+). The cellular response was initially assessed using 10 μM of each peptide. […]
Stable cell lines expressing the mussel receptors were transiently co-transfected with the mitochondrial targeted apo-aequorin protein cloned in pcDNA3.1. Two days after transfection cells were washed, counted and resuspended in 1 ml of DMEM /F12 Ham (without phenol red)/0.1% BSA supplemented with 2 µM coelenterazine (SIGMA-ALDRICH). […]

## H-CTWGGGMSDEMCSTVDIDEIQRSFQVIHDRNSP-NH2 (disulfide 1-12 (inferred)) [CALCIIa, Mediterranean mussel calcitonin-like mature peptide, 33 aa, synthesized with disulphide bond and C-terminal amidation]
[1]
  Acid phosphatase (AP) activity in mantle edge compared to control (in words): significantly decreased
Mussel CALCRIIc
  Activation of mussel CALCRIIc in dose-response analysis (in words): exclusively activated

Reference: PMC7200681, “The calcitonin-like system is an ancient regulatory system of biomineralization” (Scientific Reports, 2020)
